Experimental data published in patent publication US11540999B2, “Deodorant compositions” (The Procter & Gamble Company, priority 2017, dated 2023).
Structures can show the parent of a compound that is named as a salt.

These molecules were tested on two key underarm bacteria strains (assay: Raw material microbial inhibition, verbal summary of Table 2). Conditions: both strains of Table 2, in words.
Assay type: cell-based
Procedure: The data in Table 2 above was generated with the following test method.
3. Microbial Strains • Staphylococcus epidermidis (clinical isolate) • Corynebacterium mucofaciens (clinical isolate)
In row A of a 96 deep well plate pipette 180 ul of sterile BHI with 1% Tween 80 as a negative growth control. All other wells receive 180 ul of inoculum. From the master plate introduce 20 ul to the corresponding row in the test plate using an 8-channel pipette. Loaded plates are placed on a plate shaker in the 37° C. incubator and incubated overnight. The next day read the O.D. 600 on a plate reader. The MIC is the last well from the right that has no bacterial growth.

Compound	performance against the bacteria as raw materials
COC(=O)CCC(=O)OC [Dimethyl Succinate]	performing well
CCOC(=O)CC(O)(CC(=O)OCC)C(=O)OCC [Triethyl citrate]	performing well
C=CCCCCCCCCC(=O)N[C@@H](Cc1ccccc1)C(=O)O [Sepiwhite]	performing well
C=CCc1ccc(O)c(OC)c1 [Eugenol]	performing well
CC(C)=CCCC(C)=CC=O [Citral]	performing well
O=C([O-])[O-].[Ca+2] [Ca Carbonate, calcium carbonate]	performing moderately well
Cc1cc(CC(C)CC(C)(C)C)n(O)c(=O)c1.NCCO (stereo not shown) [piroctone olamine]	perform particularly well
